# Assay results as given in EP1617853B1, “ISOLATION OF THE HEPATOPROTECTIVE AGENT ACTEOSIDE FROM COLERBROKEA OPPOSITIFOLIA” (COUNCIL OF SCIENTIFIC AND INDUSTRIAL RESEARCH, priority 2003, dated 2004).
# Tested on: CCl4 induced hepatic injury
# Assay: Hepatoprotective potential against CCl4 induced hepatic injury (prophylactic)
# Assay type: in vivo, Rodents
# Conditions: for ALP % protection / Albumin % protection / Bilirubin % protection / GOT % protection / GPT % protection / GSH % protection / LP % protection / TG % protection: value within parenthesis
# Source text: The compound has been bioevaluated for hepatoprotective/antihepatotoxic activity by using a comprehensive study design annexed herewith as Annexure-2. The parameters studied during the bioevaluation to establish the bioefficacy and optimum dose were preferred using the kits (Clonital, Italy and Accurex Biomedical Pvt. Ltd Thane). The list of the parameters is given in Annexure-2 appended herewith. The dose response graphs with respect to different parameters in comparison with the standard drug with silymarin and glycyrrhizin are given in Annexure-3 appended herewith.
# Hepatoprotective activity (H) was calculated by the following equation : H = [1-(TC-V/VC-V)]x100 [formula]
# Where TC, VC, and V are drug + toxin, vehicle + toxin and vehicle treated groups of animals respectively. Table-1: Hepatoprotective potential of Acteoside against CCl4 induced hepatic injury in Rodents Prophylactic).
# [1] = 0.625 mg/kg p.o. + CCl4 1 ml/kg p.o., prophylactic, mean ± SE of six animals
# [2] = 0.625 mg/kg p.o. + CCl4 1 ml/kg p.o., prophylactic
# [3] = 1.25 mg/kg p.o. + CCl4 1 ml/kg p.o., prophylactic, mean ± SE of six animals
# [4] = 1.25 mg/kg p.o. + CCl4 1 ml/kg p.o., prophylactic
# [5] = 2.5 mg/kg p.o. + CCl4 1 ml/kg p.o., prophylactic, mean ± SE of six animals
# [6] = 2.5 mg/kg p.o. + CCl4 1 ml/kg p.o., prophylactic
# [7] = 5.0 mg/kg p.o. + CCl4 1 ml/kg p.o., prophylactic, mean ± SE of six animals
# [8] = 5.0 mg/kg p.o. + CCl4 1 ml/kg p.o., prophylactic
# [9] = Acteoside only (Per-se), 5 mg/kg p.o., no CCl4, mean ± SE of six animals
# [10] = 100 mg/kg p.o. + CCl4 1 ml/kg p.o., prophylactic, mean ± SE of six animals
# [11] = 100 mg/kg p.o. + CCl4 1 ml/kg p.o., prophylactic, mean ± SE of six animals, unit = µ mole pyruvate/min/L
# [12] = 100 mg/kg p.o. + CCl4 1 ml/kg p.o., prophylactic
structure (smiles),measurement,setting,value
"C[C@@H]1O[C@@H](O[C@@H]2[C@@H](O)[C@H](OCCc3ccc(O)c(O)c3)O[C@H](CO)[C@H]2OC(=O)/C=C/c2ccc(O)c(O)c2)[C@H](O)[C@H](O)[C@H]1O [Acteoside, β-(3',4'-dihydroxyphenyl) ethyl -O-α-L-rhamnopyranosyl (1→3)-β-D-(4-O-caffeoyl)-glucopyranoside]",Hepatic parameters GSH (glutathione),[1],4.66±0.28 µ mole GSH/g liver
same,Hepatic parameters LP (lipid peroxidation),[1],61.08±3.39 n mole MDA/g liver
same,Serum parameter ALP,[1],66.80±3.53 µ mole of p-nitrophenol formed /min/L
same,Serum parameter Albumin,[1],3.06±0.07 g %
same,Serum parameter Bilirubin,[1],0.70±0.03 mg %
same,Serum parameter TG,[1],80.15±3.53 mg %
same,ALP % protection,[2],21.48%
same,Albumin % protection,[2],21.43%
same,Bilirubin % protection,[2],12.24%
same,GOT % protection,[2],36.64%
same,GPT % protection,[2],39.44%
same,GSH % protection,[2],27.86%
same,LP % protection,[2],43.53%
same,TG % protection,[2],17.63%
same,Hepatic parameters GSH (glutathione),[3],5.93±0.32 µ mole GSH/g liver
same,Hepatic parameters LP (lipid peroxidation),[3],52.61±2.25 n mole MDA/g liver
same,Serum parameter ALP,[3],59.10±3.09 µ mole of p-nitrophenol formed /min/L
same,Serum parameter Albumin,[3],3.25±0.14 g %
same,Serum parameter Bilirubin,[3],0.59±0.03 mg %
same,Serum parameter TG,[3],74.38±3.78 mg %
same,ALP % protection,[4],38.72%
same,Albumin % protection,[4],35.00%
same,Bilirubin % protection,[4],34.69%
same,GOT % protection,[4],55.43%
same,GPT % protection,[4],51.01%
same,GSH % protection,[4],52.96%
same,LP % protection,[4],59.38%
same,TG % protection,[4],27.13%
same,Hepatic parameters GSH (glutathione),[5],6.72±0.28 µ mole GSH/g liver
same,Hepatic parameters LP (lipid peroxidation),[5],45.46±2.79 n mole MDA/g liver
same,Serum parameter ALP,[5],51.20±1.42 µ mole of p-nitrophenol formed /min/L
same,Serum parameter Albumin,[5],3.55±0.22 g %
same,Serum parameter Bilirubin,[5],0.50±0.03 mg %
same,Serum parameter TG,[5],59.85±1.88 mg %
same,ALP % protection,[6],56.40%
same,Albumin % protection,[6],56.43%
same,Bilirubin % protection,[6],53.06%
same,GOT % protection,[6],58.92%
same,GPT % protection,[6],59.79%
same,GSH % protection,[6],68.57%
same,LP % protection,[6],72.76%
same,TG % protection,[6],51.06%
same,Hepatic parameters GSH (glutathione),[7],7.02±0.46 µ mole GSH/g liver
same,Hepatic parameters LP (lipid peroxidation),[7],44.22±1.66 n mole MDA/g liver
same,Serum parameter ALP,[7],46.37±1.89 µ mole of p-nitrophenol formed /min/L
same,Serum parameter Albumin,[7],3.91±0.12 g %
same,Serum parameter Bilirubin,[7],0.42±0.02 mg %
same,Serum parameter TG,[7],49.31±1.47 mg %
same,ALP % protection,[8],67.21%
same,Albumin % protection,[8],32.14%
same,Bilirubin % protection,[8],69.38%
same,GOT % protection,[8],70.49%
same,GPT % protection,[8],66.08%
same,GSH % protection,[8],74.50%
same,LP % protection,[8],75.07%
same,TG % protection,[8],68.42%
same,Hepatic parameters GSH (glutathione),[9],8.33±0.33 µ mole GSH/g liver
same,Hepatic parameters LP (lipid peroxidation),[9],30.52±1.38 n mole MDA/g liver
same,Serum parameter ALP,[9],31.87±2.15 µ mole of p-nitrophenol formed /min/L
same,Serum parameter Albumin,[9],4.66±0.18 g %
same,Serum parameter Bilirubin,[9],0.27±0.02 mg %
same,Serum parameter TG,[9],31.10±2.39 mg %
same,Serum parameter GOT,"Acteoside only (Per-se), 5 mg/kg p.o., no CCl4, mean ± SE of six animals, unit = µ mole pyruvate/min/L",94.71±5.29 Units
same,overall percent protection,"with reference to all the parameters studied, CCl4, dose of 1.25 mg upto 5 mg/kg",40-80%
"CC1(C)[C@@H](O[C@H]2O[C@H](C(=O)O)[C@@H](O)[C@H](O)[C@H]2O[C@@H]2O[C@H](C(=O)O)[C@@H](O)[C@H](O)[C@H]2O)CC[C@]2(C)[C@H]3C(=O)C=C4[C@@H]5C[C@@](C)(C(=O)O)CC[C@]5(C)CC[C@@]4(C)[C@]3(C)CC[C@@H]12 [Glycyrrhizin, reference compound]",Hepatic parameters GSH (glutathione),[10],5.96 ±0.26 µ mole GSH/g liver
same,Hepatic parameters LP (lipid peroxidation),[10],54.37 ± 4.32 n mole MDA/g liver
same,Serum parameter ALP,[10],55.63 ± 3.52 µ mole of p-nitrophenol formed /min/L
same,Serum parameter Albumin,[10],3.30 ± 0.12 g %
same,Serum parameter Bilirubin,[10],0.55 ± 0.04 mg %
same,Serum parameter TG,[10],65.31 ± 3.69 mg %
same,Serum parameter GOT,[11],494.27 ± 36.28 Units
same,Serum parameter GPT,[11],746.87 ± 49.77 Units
same,ALP % protection,[12],46.48%
same,Albumin % protection,[12],38.57%
same,Bilirubin % protection,[12],42.85%
same,GOT % protection,[12],56.44%
same,GPT % protection,[12],53.87%
same,GSH % protection,[12],53.55%
same,LP % protection,[12],56.08%
same,TG % protection,[12],42.07%
